The text below walks through data of patent US20080132565A1, “Polycyclic Macrolactones” (priority 2003, published 2008).

Like-named read-outs stand apart in the source and are kept apart here.

Data set [1] can be described thus: physicochemical properties: solubility.
Data set [2] has as its system Arthrobacter aurescens DSM 20166. Put plainly: agar diffusion test. The class given is cell-based. The settings on record: CM, 10 μl per filter disk. Here is the method: (§1) The Gram-negative bacteria and fungi which were tested were insensitive to the abyssomicins.
On the technique in general: In agar diffusion tests the substance spreads into inoculated agar from a disc or well.

In data set [3] the test system is Bacillus subtilis DSM 10. Put plainly: agar diffusion test. Format: cell-based. The conditions noted are these: 10 μl per filter disk. Here is the method:
as §1

The subject of data set [4] is Brevibacillus brevis DSM 30. Put plainly: agar diffusion test. The class given is cell-based. The conditions noted are these: 10 μl per filter disk. The procedure: as §1
The subject of data set [5] is Rhodococcus erythropolis DSM 1069. Put plainly: agar diffusion test. Format: cell-based. The conditions noted are these: 10 μl per filter disk. The procedure:
as §1

Data set [6] deals with Staphylococcus aureus DSM 20231. The data set can be described thus: agar diffusion test. Format: cell-based. The settings on record: CM, 10 μl per filter disk. Here is the method: as §1
Data set [7] deals with Streptomyces viridochromogenes Tü 57. The data set can be described thus: agar diffusion test. The conditions noted are these: CM, 10 μl per filter disk. The class given is cell-based. Here is the method:
as §1

Data set [8] deals with Bacillus subtilis DSM 10. Put plainly: MIC dilution series test. Format: cell-based. The settings on record: 2 ml test tube scale, shaker at 120 rpm. Here is the method: (§2) The minimum inhibitory concentration (MIC) of abyssomicin C was determined in a dilution series test. As expected, the test organisms are substantially more sensitive to abyssomicin C in chemically defined medium.

Data set [9] deals with Rhodococcus erythropolis DSM 1069. Put plainly: MIC dilution series test. Format: cell-based. The conditions noted are these: CM (complex medium); 2 ml test tube scale, shaker at 120 rpm. Here is the method:
as §2

In data set [10] the test system is Staphylococcus aureus DSM 20231. The data set can be described thus: MIC dilution series test. Format: cell-based. The settings on record: CM (complex medium); 2 ml test tube scale, shaker at 120 rpm. Here is the method:
as §2

For another data set, the system named is Gram-positive bacteria. The data set can be described thus: agar diffusion test, activity spectrum. The class given is cell-based. The settings on record: Gram-positive bacteria tested. The procedure: as §1

Regarding `CC1CC(C)C2(O)CC(=NO2)C2C(O)C3OC4=C(C(=O)OC42CC3C)C1=O` (stereo not drawn) [abyssomicin B], in data set [1] (in methanol and DMSO), the solubility entry was “soluble”.
abyssomicin C: the inhibition zone diameter in data set [2] (0.3 mg/ml) came out at 10 mm; in data set [2] (1 mg/ml), 14 mm; in the data set on Bacillus subtilis DSM 10 [3] (CM, 0.1 mg/ml), 10 mm; with Bacillus subtilis DSM 10 [3] (CM, 0.3 mg/ml) it was 12 mm; in the data set with Bacillus subtilis DSM 10 [3] (CM, 1 mg/ml) it was 16 mm; with Bacillus subtilis DSM 10 [3] (MM, 0.1 mg/ml), 14 mm. The inhibition zone diameter in the data set with Bacillus subtilis DSM 10 [3] (MM, 0.3 mg/ml) is 19 mm; with Bacillus subtilis DSM 10 [3] (MM, 1 mg/ml), 26 mm; in data set [4] (CM, 0.1 mg/ml), 9 mm; in [4] (CM, 0.3 mg/ml), 12 mm; in data set [4] (CM, 1 mg/ml) it was 17 mm; in data set [4] (MM, 0.1 mg/ml), 19 mm. In addition, the inhibition zone diameter in data set [4] (MM, 0.3 mg/ml) stood at 24 mm; in [4] (MM, 1 mg/ml), 30 mm; in data set [5] (CM (first line, r17), 0.1 mg/ml) it was 15 mm; in data set [5] (CM (first line, r17), 0.3 mg/ml), 18 mm; in data set [5] (CM (first line, r17), 1 mg/ml), 27 mm; in data set [5] (CM (second line, r18), 0.1 mg/ml), 21 mm. Also, the inhibition zone diameter in [5] (CM (second line, r18), 0.3 mg/ml) stood at 28 mm; in data set [5] (CM (second line, r18), 1 mg/ml), 30 mm; in [6] (0.1 mg/ml), 9 mm; in [6] (0.3 mg/ml), 11 mm; in data set [6] (1 mg/ml), 19 mm; in data set [7] (0.3 mg/ml), 9 mm. This molecule also had an inhibition zone diameter in data set [7] (1 mg/ml) of 11 mm. Also, the “Minimum inhibitory concentration (MIC)” value with Bacillus subtilis DSM 10 [8] (CM (complex medium)) came to 10 µg/mL; with Bacillus subtilis DSM 10 [8] (MM (chemically defined medium)) it was 0.1 µg/mL; in data set [9] it was 10 µg/mL; in [10], 100 µg/mL. The antibiotic effect entry in the data set on Gram-positive bacteria was “antibiotic effect”. Also, the solubility result in data set [1] was “soluble”.
On to `CC1CC(C)/C(O)=C2/C(=O)OC34CC(C)C5OC23C(CC4C5O)C1=O` (stereo not drawn) [abyssomicin D], for which, in [1] (in methanol and DMSO), the solubility result is on record as “soluble”.
